This is an account of results in patent US9522198B2, “Methods and compositions related to targeting tumors and wounds” (Sanford-Burnham Medical Research Institute, priority 2006, dated 2016).

One series addresses T1, fibrinogen (Homo sapiens, UniProt P02671+P02675+P02679).
T1 sequence (P02671 20-629 limits assumed): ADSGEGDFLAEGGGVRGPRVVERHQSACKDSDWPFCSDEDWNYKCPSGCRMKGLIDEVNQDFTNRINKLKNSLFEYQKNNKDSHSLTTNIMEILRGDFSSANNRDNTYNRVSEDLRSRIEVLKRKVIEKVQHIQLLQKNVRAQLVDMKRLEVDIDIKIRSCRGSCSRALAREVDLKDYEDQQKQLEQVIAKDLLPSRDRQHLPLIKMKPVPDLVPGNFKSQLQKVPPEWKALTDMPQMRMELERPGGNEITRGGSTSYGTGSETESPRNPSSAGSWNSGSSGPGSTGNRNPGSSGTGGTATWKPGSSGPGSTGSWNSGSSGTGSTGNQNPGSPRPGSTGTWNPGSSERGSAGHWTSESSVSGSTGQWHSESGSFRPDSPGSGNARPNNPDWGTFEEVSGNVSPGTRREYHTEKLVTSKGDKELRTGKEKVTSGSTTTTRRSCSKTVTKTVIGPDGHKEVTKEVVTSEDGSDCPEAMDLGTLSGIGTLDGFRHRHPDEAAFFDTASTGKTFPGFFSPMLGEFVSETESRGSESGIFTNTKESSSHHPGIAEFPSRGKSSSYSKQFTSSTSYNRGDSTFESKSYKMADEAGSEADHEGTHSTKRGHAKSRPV
T1 sequence (P02675 31-491): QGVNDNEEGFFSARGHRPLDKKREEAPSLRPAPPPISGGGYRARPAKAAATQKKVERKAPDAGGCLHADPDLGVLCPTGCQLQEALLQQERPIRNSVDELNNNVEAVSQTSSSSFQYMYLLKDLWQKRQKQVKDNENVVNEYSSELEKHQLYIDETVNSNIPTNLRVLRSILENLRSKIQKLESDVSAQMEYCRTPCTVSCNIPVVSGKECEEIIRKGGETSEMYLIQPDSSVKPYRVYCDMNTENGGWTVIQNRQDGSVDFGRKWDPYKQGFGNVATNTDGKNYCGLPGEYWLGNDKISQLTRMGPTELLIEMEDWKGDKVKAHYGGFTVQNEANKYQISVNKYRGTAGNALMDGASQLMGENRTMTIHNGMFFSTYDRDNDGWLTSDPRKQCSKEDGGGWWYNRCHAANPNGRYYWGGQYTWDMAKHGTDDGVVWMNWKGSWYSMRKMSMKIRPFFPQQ
T1 sequence (P02679 27-453): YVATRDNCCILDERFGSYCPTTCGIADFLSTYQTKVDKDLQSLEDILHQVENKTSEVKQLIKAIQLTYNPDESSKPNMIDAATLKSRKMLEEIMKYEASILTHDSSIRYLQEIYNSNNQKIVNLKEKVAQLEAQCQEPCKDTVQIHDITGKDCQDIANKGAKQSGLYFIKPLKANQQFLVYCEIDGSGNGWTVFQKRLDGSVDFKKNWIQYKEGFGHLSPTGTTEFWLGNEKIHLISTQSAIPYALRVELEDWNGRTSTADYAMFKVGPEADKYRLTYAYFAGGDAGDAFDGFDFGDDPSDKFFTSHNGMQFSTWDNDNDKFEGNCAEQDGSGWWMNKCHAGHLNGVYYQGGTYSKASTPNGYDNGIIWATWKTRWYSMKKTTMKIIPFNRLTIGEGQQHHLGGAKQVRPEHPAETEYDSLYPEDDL
Particulars: reported, Akerman, Pilch et al. 2005; cited from earlier work.

The next series has as its system fibronectin. Particulars: reported, Akerman, Pilch et al. 2005; cited from earlier work.
For series [1], the system named is orthotopic MDA-MB-435 xenograft tumors. As to the kind of experiment: Tumor homing of i.v. injected fluorescein-conjugated peptides, MDA-MB-435 xenografts. It counts as in vivo, mouse. From the text: To determine whether the CLT peptides would recognize clotted plasma proteins in vivo, the peptides were synthesized as fluorescein conjugates and imaged their accumulation in tumors. Mice bearing orthotopic MDA-MB-435 xenograft tumors were intravenously injected with fluorescein-conjugated CLT1 (n=6), CLT2 (n=4), or a control peptide (n=4) with the sequence KAREC (SEQ ID NO: 5).
B16F1 mouse melanoma, Lewis lung carcinoma, C8161 human melanoma, MDA-MB-435 human breast cancer, and PPC-1 human prostate cancer cells (American Type Culture Collection) were maintained in RPMI or DMEM supplemented with 10% FCS. Human tumor cells (1×10^6) were injected into the mammary fat pad or the flank of nude BALB/c nu/nu mice to induce tumors. MMTV PyMT mice were provided by Dr. Robert Oshima (Burnham Institute for Medical Research, La Jolla, Calif.). The MMTV PyMT mice develop breast cancer under the influence of a polyoma middle T antigen driven by the mouse tumor virus promoter (Siegel, P. M., Ryan, E. D., Cardiff, R. D., Muller W. J. (1999) EMBO J., 18, 2149-64). B16F1 tumors induced by injecting 1×10^6 cells subcutaneously were grown in the flank of fibrinogen knock-out mice (Suh, T. T., Holmback, K., Jensen, N. J., Daugherty, C. C., Small, K., Simon, D. I., Potter, S., & Degen, J. L. (1995) Genes Dev. 9, 2020-2033), and of transgenic plasma fibronectin-deficient C57BL/6-Fn(f1/f1) Mx-Cre^+ (Sakai, T., Johnson, K. J., Murozono, M., Sakai, K., Magnuson, M. A., Wieloch, T., Cronberg, T., Isshiki, A., Erickson, H. P., & Fassler R. (2001) Nat. Med. 7, 324-30) and their wild type littermates. Deletion of the fibronectin gene in the liver was induced by poly(I):poly(C) (Yi, M., Sakai, T., Fassler, R., & Ruoslahti, E. (2003) Proc. Natl. Acad. Sci. USA. 100, 11435-11438). Frozen human tissues from clinical breast cancers were provided by the Western Division of the NCI Cooperative Human Tissue Network (Vanderbilt University Medical Center, Nashville, Tenn.).
Peptides were synthesized and conjugated to fluorescein isothiocyanate as described (Laakonen et al. PNAS 2004), and cyclized by exposure to air.
Imaging under a blue light, and examination of the distribution of fluorescein-conjugated peptides after tail vein injection have been described (Hoffman, R. M. (2005) Nature Reviews Cancer 5, 796-806; Laakkonen, P., Akerman, M. E., Biliran, H., Yang, M., Ferrer, F., Karpanen, T., Hoffman, R. M., & Ruoslahti E. (2004) Proc. Natl. Acad. Sci. USA 101, 9381-6).
The imaging methods are briefly described as follows: A Leica fluorescence stereomicroscope, model LZ12, equipped with a 50-W mercury lamp, was used for high-magnification imaging. Selective excitation of GFP was produced through a D425y60 band-pass filter and 470 DCXR dichroic mirror. Emitted fluorescence was collected through a long-pass filter GG475 (Chroma Technology, Brattleboro, Vt.) on a Hamamatsu C5810 3-chip cooled color charge-coupled device camera (Hamamatsu Photonics Systems, Bridgewater, N.J.). Images were processed for contrast and brightness and analyzed with the use of IMAGE PRO PLUS 3.1 software (Media Cybernetics, Silver Springs, Md.). Images of 1,024×724 pixels were captured directly on an IBM PC or continuously through video output on a high-resolution Sony VCR model SLV-R1000 (Sony, Tokyo). Imaging at lower magnification that visualized the entire animal was carried out in a light box illuminated by blue light fiber optics (Lightools Research, Encinitas, Calif.) and imaged by using the thermoelectrically cooled color charge-coupled device camera, as described above (Yang, M., Baranov, E., Jiang, P., Sun, F-X., Li, X-M., Li, L., Hasegawa, S., Bouvet, M., Al-Tuwaijri, M., Chishima, T., et al (2000) Proc. Natl. Acad. Sci. USA 97, 1206-11).
The mice were perfused through the heart 3 hours after the peptide injection and tissues removed for examination. […]

In a further series the test system is mouse femoral artery. As to the kind of experiment: Homing to wire-injured femoral artery. The series is classed as in vivo. How it is done: (§1) The wire injury of the mouse femoral artery was induced as previously described (Komatsu, M. & Ruoslahti, E. (2005) Nat Med. (2005) 11:1346-1350). Thirty minutes after the wire injury, 250 μg of fluorescein-conjugated peptides were injected i.v. Muscle injuries were induced in mice by applying a crush injury to the quadriceps muscle, and 500 μg fluorescein-conjugated peptides were injected i.v. 48 hours later. Skin incisions were studied similarly. The mice were perfused through the heart 4 hours after the peptide injection, and tissues were excised, fixed in 4% paraformaldehyde, and embedded in OCT.

In another series the test system is skin. As to the kind of experiment: Homing to skin incision. It counts as in vivo, mouse. As to the method:
as §1

Another series relates to quadriceps muscle. In words: Homing to muscle crush injury. The series is classed as in vivo, mouse. As to the method:
as §1

In series [2] the test system is human umbilical venous endothelial cells (HUVECs). The series is classed as cell-based. Particulars: HUVECs. From the text:
CLT1 contains a sequence of three consecutive hydrophobic residues, LII (leucine-isoleucine-isoleucine). This motif is very similar to the VII sequence (V, valine) which causes proteins to form large insoluble aggregates (Esteras-Chopo et al. 2005). […] The ability of CLT1 to aggregate proteins correlates with its cytotoxicity for human umbilical venous endothelial cells (HUVECs).

The next series relates to mitochondrial membranes. Particulars: concentration of 10 μM; cited from earlier work.
Setting [3] is: 500 μg fluorescein-conjugated peptide i.v., 3 h.

“Also recorded” adds a separate entry of the source. Ends that are not written are not given here.

For Anginex, the “aggregate formation in presence of fibrinogen” value at fibrinogen is recorded as “form aggregates”. Also, the “aggregate formation in presence of fibronectin” value in the series on fibronectin was “form aggregates”.

As for “CNAGESSKNC (also: cyclic, ring type not given here, fluorescein conjugate, site not given here) [CLT2, cyclic decapeptide from phage library screened on plasma clots; tested as fluorescein conjugate]”, in series [1] (setting [3]), the “fluorescence in control / healthy organs” value is listed as “not in control organs” and the “fluorescence in tumors, whole tissues under blue light” value is “intense fluorescence; also recorded: strong fluorescence”. For the same substance, in series [1] (fluorescein-conjugated peptide i.v., 3 h, 400×), the “histological distribution of peptide fluorescence within the tumor” value is “distributed in a network pattern”. Also, the “tumor homing / fluorescence on co-injection with unlabeled CLT2” value in series [1] (unlabeled CLT2 in 5 fold excess) is on record as “strongly reduced”. The “homing to normal (intact) femoral artery” value in the series on mouse femoral artery (uninjured) is on record as “not to a normal femoral artery”. Besides, the “homing to injured femoral artery” value with mouse femoral artery (wire injury 30 min earlier, 250 μg i.v.) is “homes”. Further, the “homing to skin incision” value in the series with skin (incision 48 hours earlier) is “accumulate”. In the series with skin (uninjured), the “homing to normal skin” value is “negative”. In the series on quadriceps muscle (injury 48 hours earlier, 500 μg i.v.), the “homing to muscle crush injury” value is recorded as “accumulate”. The “homing to normal muscle” value with quadriceps muscle (uninjured) was “negative”. In addition, the “cytotoxicity for endothelial cells” value in series [2] is given as “nor cytotoxic”.

As to “D(KLAKLAK)2 (KLAKLAKKLAKLAK; D-amino acids) [antimicrobial peptide]”, the mitochondrial swelling result in the series on mitochondrial membranes was “marked mitochondrial swelling”.

For the substance “KAREC (also: fluorescein conjugate, site not given here) [reference compound]”, in series [1] (setting [3]), the “fluorescence in tumors, whole tissues under blue light” value is listed as “essentially no fluorescence”.
